Earlier results, collected in patent US20050154020A1, “4-Aryl piperidines” (Synaptic Pharmaceutical Corporation, priority 2004, published 2005).

Experiments:
[1] = target: T1, MCH1 (Rattus norvegicus, UniProt P97639)
T1 construct: from tissue; host or cells: whole living rat (in vivo behavioural model)

[2] = target: T1, MCH1; remark: listed apart in the source
[3] = target: T2, MCH1 (Cavia porcellus, UniProt H0VKT7)
T2 construct: from tissue; host or cells: whole living guinea pig (in vivo behavioural model)
T2 sequence (H0VKT7 1-355): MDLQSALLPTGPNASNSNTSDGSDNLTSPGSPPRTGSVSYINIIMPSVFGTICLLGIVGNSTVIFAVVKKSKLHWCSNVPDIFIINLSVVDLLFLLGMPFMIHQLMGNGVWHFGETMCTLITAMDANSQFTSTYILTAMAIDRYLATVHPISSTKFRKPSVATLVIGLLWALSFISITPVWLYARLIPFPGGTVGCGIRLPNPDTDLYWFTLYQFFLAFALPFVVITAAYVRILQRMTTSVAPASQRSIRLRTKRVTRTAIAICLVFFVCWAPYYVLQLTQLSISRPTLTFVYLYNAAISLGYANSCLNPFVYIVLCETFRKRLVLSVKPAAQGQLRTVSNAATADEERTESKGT

T1 sequence (P97639 whole entry): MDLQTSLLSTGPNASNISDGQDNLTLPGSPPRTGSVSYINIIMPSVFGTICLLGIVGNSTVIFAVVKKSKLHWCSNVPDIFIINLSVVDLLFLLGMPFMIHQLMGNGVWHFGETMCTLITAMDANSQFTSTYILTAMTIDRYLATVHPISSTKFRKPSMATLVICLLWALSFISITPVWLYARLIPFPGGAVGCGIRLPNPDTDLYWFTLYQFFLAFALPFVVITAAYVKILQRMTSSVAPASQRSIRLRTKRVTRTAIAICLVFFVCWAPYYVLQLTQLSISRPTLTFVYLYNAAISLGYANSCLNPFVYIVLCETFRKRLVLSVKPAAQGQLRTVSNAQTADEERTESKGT

## COCC1=C(C(=O)OC)[C@H](c2ccc(F)c(F)c2)N(C(=O)NCCCN2CCC(c3cccc(NC(C)=O)c3)CC2)C(=O)N1 [SNAP-7941]
[1]
  effect in rat forced-swim test (model of depression/anxiety): effects similar to clinically used antidepressants and anxiolytics
[2]
  effect in rat social interaction test (model of depression/anxiety): effects similar to clinically used antidepressants and anxiolytics
[3]
  effect in guinea pig maternal-separation vocalization test (model of depression/anxiety): effects similar to clinically used antidepressants and anxiolytics
